The test system of test [1] is NCI-H1299. In words: hTERT-SEAP (Human telomerase reverse transcriptase-SEAP) activity in non-small cell lung cancer H1299 cell at 30.0 uM concentration and level of cell viability determined in MTT assay. The test is classed as functional. (Tetrazolium dyes change colour on reduction, which living cells bring about.)
Test [2] relates to NCI-H1299. Put plainly: hTERT-SEAP (Human telomerase reverse transcriptase-SEAP) activity in non-small cell lung cancer H1299 cell at 3.0 uM concentration and level of cell viability determined in MTT assay. The test is classed as functional.
For test [3], the system named is NCI-H1299. Put plainly: Compound was tested for human telomerase reverse transcriptase-SEAP (hTERT-SEAP) activity in non-small cell lung cancer H1299 cell at 3.0 uM concentration. The format is functional.
Test [4] deals with BJ. In words: Compound was tested for human telomerase reverse transcriptase-SEAP (hTERT-SEAP) activity in immortalized hTERT-BJI at 30.0 uM concentration. The test is classed as functional.
Test [5] concerns NCI-H1299. Put plainly: hTERT-SEAP (Human telomerase reverse transcriptase-SEAP) activity in non-small cell lung cancer H1299 cell at 300.0 uM concentration and level of cell viability determined in MTT assay. The format is functional.
Test [6] relates to BJ. In words: hTERT-SEAP (Human telomerase reverse transcriptase-SEAP) activity in immortalized hTERT-BJI at 3.0 uM concentration and level of cell viability determined in MTT assay. The format is functional.
In test [7] the test system is BJ. Put plainly: hTERT-SEAP (Human telomerase reverse transcriptase-SEAP) activity in immortalized hTERT-BJI at 30.0 uM concentration and level of cell viability determined in MTT assay. The test is classed as functional.
The test system of test [8] is BJ. Put plainly: Compound was tested for human telomerase reverse transcriptase-SEAP (hTERT-SEAP) activity in immortalized hTERT-BJI at 3.0 uM concentration. The test is classed as functional.
Test [9] has as its system NCI-H1299. In words: Compound was tested for human telomerase reverse transcriptase-SEAP (hTERT-SEAP) activity in non-small cell lung cancer H1299 cell at 300.0 uM concentration. The test is classed as functional.
Test [10] concerns BJ. Put plainly: Compound was tested for human telomerase reverse transcriptase-SEAP (hTERT-SEAP) activity in immortalized hTERT-BJI at 300.0 uM concentration. The test is classed as functional.
For test [11], the system named is NCI-H1299. Put plainly: Compound was tested for human telomerase reverse transcriptase-SEAP (hTERT-SEAP) activity in non-small cell lung cancer H1299 cell at 30.0 uM concentration. The format is functional.
For test [12], the system named is BJ. Put plainly: hTERT-SEAP (Human telomerase reverse transcriptase-SEAP) activity in immortalized hTERT-BJI at 300.0 uM concentration and level of cell viability determined in MTT assay. The test is classed as functional.
In test [13] the test system is BJ. Put plainly: pPCMV-SEAP (cytomegalovirus-SEAP) activity in immortalized hTERT-BJ1 at 24 uM concentration and level of cell viability determined in MTT assay. The test is classed as functional, Homo sapiens.
Test [14] concerns BJ. In words: hTERT-SEAP (Human telomerase reverse transcriptase-SEAP) activity in immortalized hTERT-BJI at 24 uM concentration and level of cell viability determined in MTT assay. The test is classed as functional.
For test [15], the system named is BJ. Put plainly: Compound was tested for cytomegalovirus or (pPCMV-SEAP) activity in immortalized hTERT-BJ1 at 2.4 uM concentration. The test is classed as functional, Homo sapiens.
Test [16] deals with NCI-H1299. In words: hTERT-SEAP (Human telomerase reverse transcriptase-SEAP) activity in non-small cell lung cancer H1299 cell at 2.4 uM concentration and level of cell viability determined in MTT assay. The format is functional.
Test [17] deals with NCI-H1299. Put plainly: Compound was tested for human telomerase reverse transcriptase-SEAP (hTERT-SEAP) activity in non-small cell lung cancer H1299 cell at 2.4 uM concentration. The format is functional.
The test system of test [18] is BJ. In words: Compound was tested for cytomegalovirus or (pPCMV-SEAP) activity in immortalized hTERT-BJ1 at 240 uM concentration. The format is functional, Homo sapiens.
Test [19] deals with BJ. Put plainly: Compound was tested for human telomerase reverse transcriptase-SEAP (hTERT-SEAP) activity in immortalized hTERT-BJI at 240.0 uM concentration. The test is classed as functional.
Test [20] has as its system BJ. In words: Compound was tested for cytomegalovirus or (pPCMV-SEAP) activity in immortalized hTERT-BJ1 at 24 uM concentration. The format is functional, Homo sapiens.
Test [21] relates to NCI-H1299. Put plainly: hTERT-SEAP (Human telomerase reverse transcriptase-SEAP) activity in non-small cell lung cancer H1299 cell at 240.0 uM concentration and level of cell viability determined in MTT assay. The test is classed as functional.
In test [22] the test system is BJ. In words: Compound was tested for human telomerase reverse transcriptase-SEAP (hTERT-SEAP) activity in immortalized hTERT-BJI at 24 uM concentration. The format is functional.
The test system of test [23] is BJ. Put plainly: hTERT-SEAP (Human telomerase reverse transcriptase-SEAP) activity in immortalized hTERT-BJI at 240.0 uM concentration and level of cell viability determined in MTT assay. The format is functional.
Test [24] deals with NCI-H1299. In words: Compound was tested for human telomerase reverse transcriptase-SEAP (hTERT-SEAP) activity in non-small cell lung cancer H1299 cell at 24 uM concentration. The format is functional.
In test [25] the test system is BJ. In words: pPCMV-SEAP (cytomegalovirus-SEAP) activity in immortalized hTERT-BJ1 at 240 uM concentration and level of cell viability determined in MTT assay. The format is functional, Homo sapiens.
The test system of test [26] is NCI-H1299. Put plainly: Compound was tested for human telomerase reverse transcriptase-SEAP (hTERT-SEAP) activity in non-small cell lung cancer H1299 cell at 240.0 uM concentration. The test is classed as functional.
Test [27] relates to BJ. Put plainly: Compound was tested for human telomerase reverse transcriptase-SEAP (hTERT-SEAP) activity in immortalized hTERT-BJI at 2.4 uM concentration. The format is functional.
The subject of test [28] is NCI-H1299. In words: hTERT-SEAP (Human telomerase reverse transcriptase-SEAP) activity in non-small cell lung cancer H1299 cell at 24 uM concentration and level of cell viability determined in MTT assay. The test is classed as functional.
Test [29] deals with BJ. In words: pPCMV-SEAP (cytomegalovirus-SEAP) activity in immortalized hTERT-BJ1 at 2.4 uM concentration and level of cell viability determined in MTT assay. The format is functional, Homo sapiens.

With `CCSc1cccc2c1C(=O)c1cccc(SCC)c1C2=O`, the Relative viability in the test with NCI-H1299 [1] worked out at 44%; with NCI-H1299 [2], 111%; with NCI-H1299 [5] it was 25%; in the test on BJ [6], 112%; in the test with BJ [7] it was 98%; with BJ [12] it was 34%. In addition, the “Relative SEAP activity” value in the test on NCI-H1299 [3] was 134%; in the test with BJ [4], 110%; in the test on BJ [8] it was 109%; in the test on NCI-H1299 [9] it was 99%; in the test on BJ [10], 104%; in the test on NCI-H1299 [11], 111%.
For the molecule `CC(C)(C)C(=O)Oc1cccc2c1C(=O)c1cccc(OC(=O)C(C)(C)C)c1C2=O`, the Relative viability in the test with BJ [13] is on record as 104%; in the test on BJ [14] it was 93%; in the test with NCI-H1299 [16], 106%; in the test with NCI-H1299 [21], 70%; in the test on BJ [23], 100%; in the test on BJ [25], 103%. Also, the Relative viability amounted to 97% in the test on NCI-H1299 [28] and 115% in the test on BJ [29]. In addition, the “Relative SEAP activity” value in the test with BJ [15] is 102%; in the test with NCI-H1299 [17], 105%; with BJ [18], 141%; in the test on BJ [19], 141%; in the test with BJ [20], 114%; with BJ [22] it was 165%. The “Relative SEAP activity” value is on record as 78% in the test on NCI-H1299 [24], 80% in the test with NCI-H1299 [26] and 147% with BJ [27].

The record behind these values is ChEMBL document CHEMBL1144896 (2003).
